{"source": "paper PMC12311729", "about": "“Probing the Mechanism of L‑DOPA 2,3-Dioxygenase Using Synthetic Derivatives of 3,4-Dihydroxyhydrocinnamic Acid” (ACS Omega, 2025)", "key": {"[1]": {"test": "Determination of pKa values by spectrophotometric titration", "conditions": "for pK a value: first catecholic deprotonation, determined spectroscopically from pH 3 to 12.5", "procedure": "A buffer system utilizing five different buffers was prepared to cover the pH range of 3.0 to 12.50. A Thermo Scientific Orion Star A211 pH meter was used to measure and determine the pH of each buffer. The pH meter was calibrated using three- and four-point calibration with pH values of 4.00, 7.01, and 10.01 and 4.00, 7.01, 10.01, and 12.00, respectively.\nThe buffer systems were prepared as previously described and included: NaOAc/HOAc buffers (C = 0.1 M; I = 0.1 M) were used to cover the pH range of 3.0 to 5.50. KH2PO4/K2HPO4 buffers (C = 0.05 M; I = 0.1 M) were used to cover the pH range of 6.00 to 8.00. CHES buffers (C = 0.05 M; I = 0.1 M) were used to cover the pH range of 8.50 to 10.50. Na2HPO4/Na3PO4 buffers (C = 0.05 M; I = 0.1 M) were used to cover the pH range of 11.00 to 12.00. KCl buffers (C = 0.1 M; I = 0.1 M) were used to cover the pH range of 12.00 to 12.50.\nThe absorbance spectra of the compounds were determined at each pH as previously described. Briefly, a stock solution was prepared for each compound by weighing 2 mg of the compound using a high-precision analytical balance. Each compound was then dissolved in DMSO at a concentration of 10 mM. A UV-transparent 96-well microplate (Corning clear acrylic 96-well UV plate with a UV-transparent flat bottom) was loaded with 196 μL of buffer solution and 4 μL of the catechol stock in each well to get a final concentration of 200 μM. DMSO (4 μL) was added to 196 μL of the appropriate buffer to produce a blank solution for each buffer.\nThe 96-well plate was loaded into the microplate reader and incubated at 30 °C and shaken for 10 min before the reading. Absorbance readings were completed by using a Synergy HTX 15032517 microplate reader. Each well was read at wavelengths from 210 to 600 nm with 2-nm increments for each scan over a duration of 60 min.\nThe data were analyzed as previously described. Raw UV-spectra scans were exported to the Excel program. They were first processed by subtracting the reading of the blank solutions from the reading of each compound at the corresponding wavelengths. […] Finally, the spectral difference between the pH 3.0 buffer and the spectra at all other pH values was plotted. Additionally, the spectral difference between the pH 4.0 buffer and the spectra at all other higher pH values was plotted. The wavelengths for the maximum positive and negative absorbance were determined by using the graphs of the spectral difference plots, both for the pH 3.0 and pH 4.0 spectral difference plots. The absolute maximum positive and total absorbance differences at these chosen wavelengths were plotted against the pH of each buffer. The data were imported into the Origin 6.0 program, and the pK a values were determined with a nonlinear regression using eq : 1 Absorbancetotal=εHA−εA−[10^(pH−pKa)]/1+10^(pH−pKa)×[St]\nεHA is the extinction coefficients of the acid form of the compound, and εA ^– is the extinction coefficient of the base form of the compound (i.e., the minima and maxima of the absorbance difference curve, respectively), and [S t] is the total compound concentration."}, "[2]": {"molecular_target": "L-DOPA 2,3-dioxygenase from S. hygroscopicus jingganensis (ShjDDO) (Streptomyces hygroscopicus, UniProt H2JL11)", "sequence (H2JL11 1-162)": "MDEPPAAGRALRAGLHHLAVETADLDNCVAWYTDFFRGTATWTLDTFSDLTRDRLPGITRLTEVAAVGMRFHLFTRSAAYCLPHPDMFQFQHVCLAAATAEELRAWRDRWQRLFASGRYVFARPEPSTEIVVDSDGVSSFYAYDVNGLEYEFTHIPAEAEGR", "test": "UV-visible steady-state assay of L-DOPA 2,3-dioxygenase (ShjDDO)", "assay_type": "biochemical", "conditions": "for kSP, O2 (μM^-1 min^-1) at pH 7.5 relative to L-DOPA x 100 for ShjDDO: percentage of the value for L-DOPA", "description": "(§1) Purified, reconstituted L-DOPA 2,3-dioxygenases were assessed for activity by monitoring the cleavage of catecholic substrates using UV–visible spectroscopy. 3,4-Dihydroxyhydrocinnamic acid (DHHCA, 3) was purchased from Sigma-Aldrich. 6-CyanoDHHCA (5) and 6-bromoDHHCA (4) were synthesized as described above.\n(§2) Molecular oxygen (AirGas) was bubbled directly into the reaction buffer through a glass-bonded silica gas diffuser (Bubblemac Industries, Inc.) or as a gas mixture blended with air (AirGas). Solutions were bubbled with oxygen for several minutes prior to use and for the duration of the experiment. To determine the K M for oxygen (i.e., K MO2), L-DOPA 2,3-dioxygenases (0.25–4.0 μM) were reacted with a saturating concentration of the catecholic substrate DHHCA/6-X-DHHCA derivatives (2–10× the K M sufficient to achieve k cat) and various oxygen concentrations (21–100% or 270–1300 μM at 22 °C). The concentration of oxygen was varied by changing the percentage of oxygen in the blend using a galvanic oxygen sensor and oxygen monitor (AirGas) and then bubbling solutions, as described above. Molecular oxygen percentages were converted to molar concentrations using a reference temperature of 22 °C. The reaction of L-DOPA 2,3-dioxygenases with DHHCA/6-X-DHHCA derivatives as a function of oxygen concentration was followed by the appearance of the steady-state cleavage product by using UV–visible spectroscopy.\n(§3) The extinction coefficients for steady-state cleavage products of DHHCA and synthetic 6-X-DHHCA derivatives were determined by reacting various concentrations of DHHCA/6-X-DHHCA derivatives at 22 °C with a 10-fold stoichiometric excess of enzyme (quantified by Fe^II–see Reconstitution) in 50 mM HEPES buffer with 154 mM NaCl at pH 7.5, bubbled with 100% oxygen to a final concentration of 780–910 μM, depending on the volume of oxygenated buffer that comprised the reaction (60–70%). Substrate solutions were prepared from authentic synthetic standards using an analytical balance, and reactions were run to completion as assessed by the appearance of the steady-state product. The λmax and extinction coefficients of DHHCA, 6-cyanoDHHCA, and 6-bromoDHHCA were determined herein as ε380 = 40 740 ± 820 M^–1cm^–1, ε385 = 33 256 ± 484 M^–1cm^–1, and ε380 = 35 282 ± 1190 M^–1cm^–1, respectively (Figure S52).\n(§4) Steady-state kinetic data were obtained through a UV–visible spectroscopic assay. Initial rates were obtained from the slopes of the linear regions of the progress curves and plotted versus substrate concentration to yield a hyperbola, which was analyzed using the Michaelis–Menten expression and nonlinear least-squares fitting (NLSF) with Origin 6.0 (Microcal). Two possible derivations of the Michaelis–Menten expression were used: 1) the traditional expression y = k cat × x/(K M + x), where y is Rate/E 0 or the rate of product formation (μM/min) divided by the starting enzyme concentration (μM), x is substrate concentration (μM) and k SP (also known as k cat × K M ^–1)–that is, the second-order rate constant of enzyme and substrate–is extracted from the fitted constants; or 2) the alternative derivation that extracts k SP and k cat directly from the fit: y = (k SP × x)/((1 + k SP × x)/k cat), and where y is Rate/E 0 or the rate of product formation (μM/min) divided by the starting enzyme concentration (μM), x is substrate concentration (μM), k SP is equivalent to k cat×K M ^–1, and K M is extracted from k cat/k cat×K M ^–1."}, "[3]": {"molecular_target": "L-DOPA 2,3-dioxygenase from S. lincolnensis (LmbB1) (Streptomyces lincolnensis, UniProt Q54354)", "sequence (Q54354 entry or part of it)": "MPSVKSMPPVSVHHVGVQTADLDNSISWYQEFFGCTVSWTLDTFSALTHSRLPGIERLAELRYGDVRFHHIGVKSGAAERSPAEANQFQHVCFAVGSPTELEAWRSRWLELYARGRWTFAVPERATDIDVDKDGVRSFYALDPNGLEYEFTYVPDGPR", "test": "UV-visible steady-state assay of L-DOPA 2,3-dioxygenase (LmbB1)", "assay_type": "biochemical", "conditions": "for kSP, O2 (μM^-1 min^-1) at pH 7.5 relative to L-DOPA x 100 for LmbB1: percentage of the value for L-DOPA", "description": "as §1, §2, §3, §4"}}, "data": [{"smiles": "N#Cc1cc(O)c(O)cc1CCC(=O)O", "note": "[6-CyanoDHHCA (5), 3-(2-cyano-4,5-dihydroxyphenyl) propanoic acid]", "values": [{"measurement": "ratio of charge states (k1/k-1) predicted by pKa value and Henderson-Hasselbach equation", "setting": "[1]; at pH 7.35", "result": 1.44}, {"measurement": "pK a value", "setting": "[1]", "result": "7.51 ± 0.06"}, {"measurement": "pK a value", "setting": "[1]; listed as 6-cyanoDHHCA", "result": 7.51}, {"measurement": "Catecholic pKa value relative to L-DOPA x 100", "setting": "[1]; percentage of the value for L-DOPA", "result": 85, "unit": "%"}, {"measurement": "kcat at 22 °C and 100% O2 saturation", "setting": "[2]; S. hygroscopicus jingganensis enzyme, pH 7.5", "result": "1.1 × 10^–3 ± 1.0 × 10 ^–4 sec^–1"}, {"measurement": "kSP,O2 × 10^2 at 22 °C", "setting": "[2]; S. hygroscopicus jingganensis enzyme, values are kSP × 10^2", "result": "4.0 × 10^–2 ± 6.0 × 10 ^–3 μM^–1 min^–1"}, {"measurement": "kSP catechol × 10^2 at 22 °C", "setting": "[2]; S. hygroscopicus jingganensis enzyme, values are kSP × 10^2, kSP = kcat/KM", "result": "2.8 × 10^–2 ± 7.1 × 10 ^–3 μM^–1 min^–1"}, {"measurement": "activity / turnover as substrate", "setting": "[2]; ShjDDO, aerobic reaction observed by UV–visible spectroscopy", "result": "measurable activity"}, {"measurement": "kSP, O2 (μM^-1 min^-1) at pH 7.5 relative to L-DOPA x 100 for ShjDDO", "setting": "[2]; listed as 6-cyanoDHHCA", "result": 0.03, "unit": "%"}, {"measurement": "kSP, O2 (μM^-1 min^-1) at pH 7.5 relative to L-DOPA x 100 for ShjDDO", "setting": "[2]; listed as 6-cyanoDHHCA (5)", "result": "< 0.1", "unit": "%"}, {"measurement": "activity / turnover as substrate", "setting": "[3]; LmbB1, aerobic reaction observed by UV–visible spectroscopy", "result": "measurable activity"}, {"measurement": "kcat at 22 °C and 100% O2 saturation", "setting": "[3]; S. lincolnensis enzyme, pH 7.5", "result": "6.7 × 10^–4 ± 2.8 × 10 ^–5 sec^–1"}, {"measurement": "kSP,O2 × 10^2 at 22 °C", "setting": "[3]; S. lincolnensis enzyme, values are kSP × 10^2", "result": "1.4 × 10^–2 ± 3.0 × 10 ^–3 μM^–1 min^–1"}, {"measurement": "kSP catechol × 10^2 at 22 °C", "setting": "[3]; S. lincolnensis enzyme, values are kSP × 10^2, kSP = kcat/KM", "result": "3.1 × 10^–2 ± 3.9 × 10 ^–3 μM^–1 min^–1"}, {"measurement": "kSP, O2 (μM^-1 min^-1) at pH 7.5 relative to L-DOPA x 100 for LmbB1", "setting": "[3]; listed as 6-cyanoDHHCA", "result": 0.02, "unit": "%"}, {"measurement": "kSP, O2 (μM^-1 min^-1) at pH 7.5 relative to L-DOPA x 100 for LmbB1", "setting": "[3]; listed as 6-cyanoDHHCA (5)", "result": "< 0.1", "unit": "%"}]}]}
